One block for each molecule: values may come before it.
Assay: solvent given as SMILES

SMILES: c1ccc2c(c1)c1ccccc1n2-c1ccc2c(c1)c1ccccc1n2-c1cc2c3ccccc3n3c4ccccc4c(c1)c23
emission maximum (in C1CCCCC1): 391.83 nm
emission maximum (in C1CCOC1): 402.09 nm
emission maximum (in Cc1ccccc1): 400 nm

SMILES: CCOC(=O)CSc1nc2c(c(C#N)c1C#N)CCCC2
emission maximum (in c1ccccc1): 407 nm

SMILES: N#CC(C#N)=Cc1ccc2c(c1)c1ccccc1n2-c1cc2ccccc2c2ccccc12
emission maximum (in CC#N): 503 nm
emission maximum (in CCCCC): 451 nm
emission maximum (in Cc1ccccc1): 445 nm
emission maximum (in ClCCl): 480 nm

SMILES: CN1C(=CC2=C([O-])C(=CC3=[N+](C)c4ccccc4C3(C)C)C2=C2C(=O)NC(=O)NC2=O)C(C)(C)c2ccccc21
emission maximum (in ClC(Cl)Cl): 665 nm

SMILES: C#Cc1ccc(-c2c3nc(c(-c4ccc(C#C)cc4)c4ccc([nH]4)c(-c4cc(C(C)(C)C)cc(C(C)(C)C)c4)c4cc(c(-c5cc(C(C)(C)C)cc(C(C)(C)C)c5)c5ccc2[nH]5)C=N4)C=C3)cc1
emission maximum (in ClCCl): 744 nm

SMILES: O=C(O)C1=C/C(=C/C=[N+]2/c3cc(O)c(C[C@@H]4O[C@H](CO)[C@@H](O)C(O)[C@H]4O)cc3C[C@H]2C(=O)O)C[C@@H](C(=O)O)N1 (some centres not stated)
emission maximum (in CO): 611 nm
emission maximum (in O): 640 nm
emission maximum (in OCCO): 607 nm
emission maximum (in [2H]O[2H]): 640 nm

SMILES: N#Cc1nn(-c2cc(F)cc(F)c2)nc1N1CCCC1
emission maximum (in CC#N): 435 nm

SMILES: FC(F)(F)c1cc2n(n1)[B-]1(c3ccccc3Oc3ccccc31)[n+]1ccc3ccccc3c1-2
emission maximum (in C1CCCCC1): 473 nm
emission maximum (in Cc1ccccc1): 517 nm
emission maximum (in ClCCl): 543 nm

SMILES: N#Cc1cc(N2c3ccccc3Oc3ccccc32)c(N2c3ccccc3Oc3ccccc32)cc1C#N
emission maximum (in c1ccc2c(c1)c1ccccc1n2-c1ccc(-c2ccc(-n3c4ccccc4c4ccccc43)cc2)cc1): 612 nm

SMILES: CCCCCCCCOc1cc(/C=C/c2cc(OCCCCCCCC)c(/C=C/c3cc(OCCCCCCCC)c(Br)cc3OCCCCCCCC)cc2OCCCCCCCC)c(OCCCCCCCC)cc1Br
emission maximum (in ClCCl): 467 nm

SMILES: CN(C)c1ccc(C#Cc2ccc3ccc4c(C#Cc5ccc(N(C)C)cc5)ccc5ccc2c3c54)cc1
emission maximum (in C1COCCO1): 489.2 nm
emission maximum (in CC(C)=O): 569.6 nm
emission maximum (in CCCCCC): 460.4 nm
emission maximum (in CCCCCCO): 528.2 nm
emission maximum (in CCO): 540 nm
emission maximum (in CCOC(C)=O): 523.5 nm
emission maximum (in CO): 554 nm
emission maximum (in Cc1ccccc1): 483.7 nm
emission maximum (in ClCCl): 532.8 nm

SMILES: CC1(C)c2ccccc2N(c2ccc(-c3nc([C@]45CC6CC(C[C@@H](C6)C4)C5)nc([C@]45C[C@H]6C[C@@H](C[C@H](C6)C4)C5)n3)cc2)c2ccccc21
emission maximum (in CC(C)(C)c1ccc(-n2c3ccc([Si](c4ccccc4)(c4ccccc4)c4ccccc4)cc3c3cc([Si](c4ccccc4)(c4ccccc4)c4ccccc4)ccc32)cc1): 450 nm
emission maximum (in Cc1ccccc1): 469.63 nm

SMILES: CC(C)(C)c1ccc(C2=C(c3ccc(N(c4ccccc4)c4ccccc4)cc3)S(=O)(=O)c3c2sc(-c2ccc(N(c4ccccc4)c4ccccc4)cc2)c3-c2ccc(C(C)(C)C)cc2)cc1
emission maximum (in C1CCOC1): 591 nm

SMILES: CCN(CC)c1ccc(/C=C/c2cc(/C=C/c3ccc(N(CC)CC)cc3)nc(N)n2)cc1
emission maximum (in Cc1ccccc1): 468 nm
emission maximum (in ClC(Cl)Cl): 518 nm

SMILES: CCC1=C(C)C(=O)n2c1cc1c(c(C)c(C(=O)OCC(C)C)n1CC(C)C)c2=O
emission maximum (in C1CCCCC1): 437 nm
emission maximum (in CO): 498 nm
emission maximum (in CS(C)=O): 479 nm
emission maximum (in ClC(Cl)Cl): 457 nm
emission maximum (in c1ccccc1): 446 nm

SMILES: C(=C\c1c2ccccc2cc2ccccc12)/c1ccc(Oc2ccc3ccccc3c2-c2c(Oc3ccc(/C=C/c4c5ccccc5cc5ccccc45)cc3)ccc3ccccc23)cc1
emission maximum (in ClCCl): 486 nm

SMILES: CN(C)c1ccc(C2=Nc3sc4c(F)c(F)c(F)c(F)c4[n+]3[B-](F)(F)O2)cc1
emission maximum (in C1CCOC1): 492 nm
emission maximum (in CC#N): 503 nm
emission maximum (in Cc1ccccc1): 464 nm
emission maximum (in ClCCl): 483 nm

SMILES: CCCCCCCCCc1c2ccccc2cc2c1oc1c3c(c4ccccc4c12)-c1c(c2oc4cc5ccccc5cc4c2c2ccccc12)OCO3
emission maximum (in C1CCOC1): 416 nm

SMILES: CC(=O)c1c2c(cc3c(N(C)C)cccc13)CCC2
emission maximum (in C1CCCCC1): 480 nm
emission maximum (in C1CCOC1): 543 nm
emission maximum (in C1COCCO1): 534 nm
emission maximum (in CC#N): 590 nm
emission maximum (in CCO): 634 nm
emission maximum (in CS(C)=O): 598 nm
emission maximum (in Cc1ccccc1): 520 nm
emission maximum (in ClC(Cl)Cl): 562 nm
emission maximum (in ClCCl): 562 nm

SMILES: O=P1(c2ccccc2)C2=C(c3ccccc31)C(c1ccccc1)(c1ccccc1)c1cc(N(c3ccccc3)c3ccccc3)ccc12 (configuration not stated)
emission maximum (in CC#N): 594 nm
emission maximum (in CO): 608 nm
emission maximum (in Cc1ccccc1): 522 nm

SMILES: CCC1=C(C)C(=O)n2c1cc1c(C)c(CCC(=O)OC)c(C)n1c2=O
emission maximum (in CO): 530 nm
emission maximum (in CS(C)=O): 505 nm
emission maximum (in ClC(Cl)Cl): 495 nm
emission maximum (in c1ccccc1): 470 nm

SMILES: CN(C)c1ccc(-c2ccc3n2[B-](F)(F)[N+]2=C(c4ccccc4)C=CC2=C3C(F)(F)F)cc1
emission maximum (in C1COCCO1): 756 nm
emission maximum (in CC#N): 772 nm
emission maximum (in CCCCCC): 696 nm
emission maximum (in CCCCO): 745 nm
emission maximum (in CCCCOCCCC): 728 nm
emission maximum (in CCO): 750 nm
emission maximum (in CCOC(C)=O): 755 nm
emission maximum (in CS(C)=O): 800 nm
emission maximum (in Cc1ccccc1): 746 nm
emission maximum (in ClC(Cl)(Cl)Cl): 712 nm

SMILES: CCCC1(CCC)c2cc(-c3ccc(C(C)(C)CC)cc3)ccc2-c2ccc(-c3ccc(C(C)(C)CC)cc3)cc21
emission maximum (in C1CCCCC1): 368 nm

SMILES: CCNc1ccc2c(c1)C(C)(C)C(=O)C=C2
emission maximum (in O): 541 nm

SMILES: CCCC1=Cc2nc1ccc1[nH]c(cc1CCC)c1nc(c(N)cc3[nH]c2cc3CCC)C(CCC)=C1
emission maximum (in Cc1ccccc1): 729 nm

SMILES: COc1ccc(C2=[N+]3C(=Nc4c(-c5cc(OC)c(OC)c(OC)c5)c(Br)c(-c5ccc(OC)cc5)n4[B-]3(F)F)C(c3cc(OC)c(OC)c(OC)c3)=C2Br)cc1
emission maximum (in Cc1ccccc1): 723 nm

SMILES: CCCCCCCCCCCCOc1cc2c3c(ccc4c5c(OCCCCCCCCCCCC)cc6c7c(ccc(c1c34)c75)C(=O)N(C1CCCCC1)C6=O)C(=O)N(C1CCCCC1)C2=O
emission maximum (in ClC(Cl)Cl): 597 nm

SMILES: c1ccc(N2c3ccccc3Sc3cc(-c4cccc5nc6ccccc6cc45)ccc32)cc1
emission maximum (in C1CCOC1): 476 nm
emission maximum (in CC#N): 504 nm
emission maximum (in CC(C)=O): 495 nm
emission maximum (in CC(C)OC(C)C): 546 nm
emission maximum (in CCCCCC): 487 nm
emission maximum (in CCCCOCCCC): 533 nm
emission maximum (in CCN(CC)CC): 525 nm
emission maximum (in CCOC(C)=O): 474 nm
emission maximum (in CCOCC): 549 nm
emission maximum (in CN(C)C=O): 495 nm
emission maximum (in ClCCl): 483 nm

The next lines start with the values.

emission maximum (in CC#N): 480 nm
emission maximum (in ClCCl): 471 nm
SMILES: Cc1cc(O)c(C(=O)/C=C/c2ccccc2[N+](=O)[O-])c(=O)o1

emission maximum (in CS(C)=O): 527 nm
SMILES: C(/C=C/Nc1cccc2ccccc12)=[NH+]c1cccc2ccccc12

emission maximum (in ClCCl): 636 nm
SMILES: Cn1c2ccccc2c2cc(/C=C/C3=[O+][B-](F)(F)OC(/C=C/c4ccc5c(c4)c4ccccc4n5C)=C3c3ccccc3)ccc21

emission maximum (in ClCCl): 577 nm
SMILES: CC1=C2C=CC(c3ccccc3)=[N+]2[B-](F)(F)n2c1ccc2-c1ccccc1

emission maximum (in ClCCl): 613 nm
SMILES: CCCCN1C(=O)C2=C(c3ccc(Br)cc3)[N-]C(=O)C2=C1c1ccc(Br)cc1

emission maximum (in C1CCCCC1): 425 nm
emission maximum (in CC#N): 425 nm
SMILES: C[Si](C)(c1c2ccccc2cc2ccccc12)[Si](C)(C)c1c2ccccc2cc2ccccc12

emission maximum (in ClCCl): 580 nm
SMILES: Nc1cccc2c1ccc1[n+]2[B-](F)(F)n2c-1cc1c3ccccc3c3ccccc3c12

emission maximum (in ClCCl): 458 nm
SMILES: COc1cc(-c2cnc(-c3cnc4ccccc4c3)o2)cc(OC)c1OC

emission maximum (in c1ccccc1): 450 nm
SMILES: O=c1oc2ccccc2nc1-c1ccccc1

emission maximum (in CC#N): 749 nm
emission maximum (in CCO): 741 nm
emission maximum (in CO): 744 nm
emission maximum (in ClC(Cl)Cl): 748 nm
SMILES: CCNc1cc2c(cc1C)C(c1ccccc1C(=O)O)=C1CCCC(/C=C/C3=[N+](C)c4ccc5ccccc5c4C3(C)C)=C1O2

emission maximum (in CC#N): 435 nm
emission maximum (in ClCCl): 437 nm
SMILES: COc1ccc(-c2cc3c(s2)c(-c2ccccc2)cc(=O)n3C)cc1

emission maximum (in C1CCOC1): 637 nm
emission maximum (in CCCCCC): 637 nm
emission maximum (in CO): 637 nm
emission maximum (in CS(C)=O): 639 nm
emission maximum (in ClC(Cl)Cl): 637 nm
emission maximum (in ClCCl): 638 nm
SMILES: CC1=[N+]2C(=c3c4c5ccccc5cc5cccc(c6cc(C)n(c36)[B-]2(F)F)c54)C=C1

emission maximum (in C1CCOC1): 537 nm
emission maximum (in CCCCCC): 440 nm
emission maximum (in ClC(Cl)Cl): 489 nm
emission maximum (in ClCCl): 556 nm
SMILES: CN1C(=O)c2cccc3c(-n4c5ccccc5c5ccccc54)ccc(c23)C1=O

emission maximum (in C1COCCO1): 616 nm
SMILES: COc1ccc(C2=C/C(=C\c3ccc([N+](=O)[O-])cc3)C(=O)N2CC(C)C)cc1

emission maximum (in CCO): 532 nm
SMILES: Nc1ccc2c(-c3ccc(Br)cc3)c3ccc(=[NH2+])cc-3oc2c1

emission maximum (in C1CCCCC1): 380 nm
emission maximum (in CO): 410 nm
SMILES: Cc1ccc(/C=C(\c2ccccc2)c2nc3ccccc3s2)cc1

emission maximum (in C1CCCCC1): 459.88 nm
SMILES: CC(C)(C)C#Cc1ccc2c3cccc4cccc(c5cccc1c52)c43

emission maximum (in C1CCCCC1): 472 nm
emission maximum (in C1CCOC1): 500 nm
emission maximum (in CC#N): 516 nm
SMILES: Cc1ccc2nc3c(nc2c1)c(-c1ccccc1)nn3C

emission maximum (in ClCCl): 622 nm
SMILES: CCCCCCOc1cc(C=C2C(=O)c3ccccc3C2=O)c(OCCCCCC)cc1C=C1C(=O)c2ccccc2C1=O

emission maximum (in CO): 502 nm
SMILES: BrC1=CN2C[n+]3cc(Br)c4ccccc4c3N=C2c2ccccc21

emission maximum (in ClC(Cl)Cl): 472 nm
emission maximum (in O): 460 nm
SMILES: C/C=C/C1=NC(=C\c2ccc(O)cc2)/C(=O)N1C

emission maximum (in C1CCOC1): 449 nm
SMILES: N#Cc1c(N2CCCCC2)cc(-c2ccccc2)c2c1Cc1ccccc1-2

emission maximum (in ClCCl): 808 nm
SMILES: Cc1ccc([N+]2=c3c4n(c5ccccc35)[B-](F)(F)[N+](c3ccc(C)cc3)=c3c=4n(c4ccccc34)[B-]2(F)F)cc1

emission maximum (in CO): 430 nm
SMILES: Cc1ccc(-c2nc(-c3ccccc3O)[nH]c2-c2ccc(C)cc2)cc1

emission maximum (in ClC(Cl)Cl): 422 nm
SMILES: COC(=O)c1ccc2cc(C#N)c3ccc4ccccc4c3c2c1

emission maximum (in CC#N): 417 nm
SMILES: COc1ccc(-n2nc(C#N)c(N3CCCC3)n2)cc1OC

emission maximum (in ClC(Cl)Cl): 449 nm
SMILES: COc1ccc(C2CC(=O)Oc3c2c2nc4ccccc4nc2c2ccccc32)cc1 (configuration not stated)
